# Data published in ChEMBL document CHEMBL1201862, “PubChem BioAssay data set” (2004).
#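 Values below derive from 48-hour exposures of cells grown in 96-well plates, with endpoints linearly interpolated between the two concentrations bracketing the appropriate inhibition level. At the GI50, growth is halved.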 Active and inactive are the calls of the source. No stated cut-off is given here; in the data, active = GI50 up to about 1.1 µM and inactive = higher.
# Experiments:
# Experiment in all cases: growth of human tumour cells (NCI), 48 h
# MDA-N = test system: MDA-N
# NCI-H23 = test system: NCI-H23
# KM-20L2 = test system: KM-20L2
# SK-MEL-28 = test system: SK-MEL-28
# SW-620 = test system: SW-620
# LOX IMVI = test system: LOX IMVI
# HOP-18 = test system: HOP-18
# OVCAR-3 = test system: OVCAR-3
# SNB-19 = test system: SNB-19
# COLO 205 = test system: COLO 205
# IGROV-1 = test system: IGROV-1
# HOP-92 = test system: HOP-92
# DMS-273 = test system: DMS-273
# NCI-H226 = test system: NCI-H226
# HT-29 = test system: HT-29
# UACC-257 = test system: UACC-257
# A498 = test system: A498
# MCF7 = test system: MCF7
# SF-268 = test system: SF-268
# HCT-15 = test system: HCT-15
# HL-60 = test system: HL-60
# XF498 = test system: XF498
# TK-10 = test system: TK-10
# K562 = test system: K562
# SK-OV-3 = test system: SK-OV-3
# SK-MEL-2 = test system: SK-MEL-2
# MDA-MB-435 = test system: MDA-MB-435
# U-251 = test system: U-251
# 786-0 = test system: 786-0
# OVCAR-4 = test system: OVCAR-4
# SF-295 = test system: SF-295
# SK-MEL-5 = test system: SK-MEL-5
# NCI/ADR-RES = test system: NCI/ADR-RES
# NCI-H522 = test system: NCI-H522
# UO-31 = test system: UO-31
# HCT-116 = test system: HCT-116
# M19-MEL = test system: M19-MEL
# OVCAR-5 = test system: OVCAR-5
# HOP-62 = test system: HOP-62
# M14 = test system: M14
# RPMI-8226 = test system: RPMI-8226
# BT-549 = test system: BT-549
# OVCAR-8 = test system: OVCAR-8
# PC-3 = test system: PC-3
# KM12 = test system: KM12
# HCC 2998 = test system: HCC 2998
# SNB-75 = test system: SNB-75
# T47D = test system: T47D
# EKVX = test system: EKVX
# ACHN = test system: ACHN
# SR = test system: SR
# CCRF-CEM = test system: CCRF-CEM
# SF-539 = test system: SF-539
# SNB-78 = test system: SNB-78
# DMS-114 = test system: DMS-114
# DU-145 = test system: DU-145
# Hs-578T = test system: Hs-578T
# MDA-MB-231 = test system: MDA-MB-231
# CAKI-1 = test system: CAKI-1
# MOLT-4 = test system: MOLT-4
# SN12C = test system: SN12C
# UACC-62 = test system: UACC-62
# NCI-H460 = test system: NCI-H460
# DLD-1 = test system: DLD-1
# A549 = test system: A549
# Malme-3M = test system: Malme-3M
# RXF 393 = test system: RXF 393
# LXFL 529 = test system: LXFL 529
smiles,measurement,setting,value
C[C@@H]1O[C@@H](O[C@H]2CC[C@]3(C=O)[C@H]4CC[C@]5(C)[C@@H](c6ccc(=O)oc6)CC[C@]5(O)[C@@H]4CC[C@]3(O)C2)[C@H](O)[C@H](O)[C@H]1O[C@@H]1O[C@H](CO)[C@@H](O)[C@H](O)[C@H]1O [HELLEBRIN],GI50,MDA-N,0.0223 µM (active)
same,GI50,NCI-H23,0.00314 µM (active)
same,GI50,KM-20L2,0.0187 µM (active)
same,GI50,SK-MEL-28,0.0375 µM (active)
same,GI50,SW-620,0.0375 µM (active)
same,GI50,LOX IMVI,0.0166 µM (active)
same,GI50,HOP-18,0.00518 µM (active)
same,GI50,OVCAR-3,0.00408 µM (active)
same,GI50,SNB-19,0.0451 µM (active)
same,GI50,COLO 205,0.0271 µM (active)
same,GI50,IGROV-1,0.0183 µM (active)
same,GI50,HOP-92,0.0402 µM (active)
same,GI50,DMS-273,0.00775 µM (active)
same,GI50,NCI-H226,0.0231 µM (active)
same,GI50,HT-29,0.0212 µM (active)
same,GI50,UACC-257,0.0243 µM (active)
same,GI50,A498,0.0284 µM (active)
same,GI50,MCF7,0.0375 µM (active)
same,GI50,SF-268,0.0375 µM (active)
same,GI50,HCT-15,0.0375 µM
same,GI50,HL-60,0.00615 µM (active)
same,GI50,XF498,0.0375 µM (active)
same,GI50,TK-10,0.00347 µM (active)
same,GI50,K562,0.0218 µM (active)
same,GI50,SK-OV-3,0.0226 µM (active)
same,GI50,SK-MEL-2,0.0199 µM (active)
same,GI50,MDA-MB-435,0.0107 µM (active)
same,GI50,U-251,0.0223 µM (active)
same,GI50,786-0,0.00451 µM (active)
same,GI50,OVCAR-4,0.00743 µM (active)
same,GI50,SF-295,0.0112 µM (active)
same,GI50,SK-MEL-5,0.00841 µM (active)
same,GI50,NCI/ADR-RES,0.0152 µM (active)
same,GI50,NCI-H522,0.00324 µM (active)
same,GI50,UO-31,0.0186 µM (active)
same,GI50,HCT-116,0.00805 µM (active)
same,GI50,M19-MEL,0.0375 µM (active)
same,GI50,OVCAR-5,0.00989 µM (active)
same,GI50,HOP-62,0.0375 µM (active)
same,GI50,M14,0.021 µM (active)
same,GI50,RPMI-8226,0.0375 µM (active)
same,GI50,BT-549,0.00509 µM (active)
same,GI50,OVCAR-8,0.0126 µM (active)
same,GI50,PC-3,0.00938 µM (active)
same,GI50,KM12,0.0521 µM (active)
same,GI50,HCC 2998,0.0365 µM (active)
same,GI50,SNB-75,0.0198 µM (active)
same,GI50,T47D,0.0166 µM (active)
same,GI50,EKVX,0.0075 µM (active)
same,GI50,ACHN,0.00423 µM (active)
same,GI50,SR,0.00601 µM (active)
same,GI50,CCRF-CEM,0.00445 µM (active)
same,GI50,SF-539,0.00811 µM (active)
same,GI50,SNB-78,0.0375 µM (active)
same,GI50,DMS-114,0.00208 µM (active)
same,GI50,DU-145,0.00265 µM (active)
same,GI50,Hs-578T,0.00653 µM (active)
same,GI50,MDA-MB-231,0.0379 µM (active)
same,GI50,CAKI-1,0.0121 µM (active)
same,GI50,MOLT-4,0.00302 µM (active)
same,GI50,SN12C,0.00506 µM (active)
same,GI50,UACC-62,0.027 µM (active)
same,GI50,NCI-H460,0.00771 µM (active)
Nc1nc(SCCC/C=C/I)nc2c1ncn2C1OC(CO)C(O)C1O (configuration not stated),GI50,NCI-H23,> 202 µM (inactive)
same,GI50,KM-20L2,> 202 µM (inactive)
same,GI50,SK-MEL-28,> 202 µM (inactive)
same,GI50,SW-620,> 202 µM (inactive)
same,GI50,LOX IMVI,> 202 µM (inactive)
same,GI50,HOP-18,> 202 µM (inactive)
same,GI50,OVCAR-3,> 202 µM (inactive)
same,GI50,SNB-19,> 202 µM (inactive)
same,GI50,COLO 205,> 202 µM (inactive)
same,GI50,IGROV-1,> 202 µM (inactive)
same,GI50,HOP-92,> 202 µM (inactive)
same,GI50,DMS-273,> 202 µM (inactive)
same,GI50,NCI-H226,> 202 µM (inactive)
same,GI50,HT-29,> 202 µM (inactive)
same,GI50,UACC-257,> 202 µM (inactive)
same,GI50,A498,> 202 µM (inactive)
same,GI50,SF-268,> 202 µM (inactive)
same,GI50,HCT-15,> 202 µM
same,GI50,HL-60,> 202 µM (inactive)
same,GI50,XF498,> 202 µM (inactive)
same,GI50,TK-10,> 202 µM (inactive)
same,GI50,K562,> 202 µM (inactive)
same,GI50,SK-OV-3,> 202 µM (inactive)
same,GI50,SK-MEL-2,> 202 µM (inactive)
same,GI50,U-251,> 202 µM (inactive)
same,GI50,DLD-1,> 202 µM (inactive)
same,GI50,786-0,> 202 µM (inactive)
same,GI50,OVCAR-4,> 202 µM (inactive)
same,GI50,SF-295,> 202 µM (inactive)
same,GI50,SK-MEL-5,> 202 µM (inactive)
same,GI50,NCI-H522,> 202 µM (inactive)
same,GI50,UO-31,> 202 µM (inactive)
same,GI50,HCT-116,> 202 µM (inactive)
same,GI50,M19-MEL,> 202 µM (inactive)
same,GI50,A549,> 202 µM (inactive)
same,GI50,OVCAR-5,> 202 µM (inactive)
same,GI50,HOP-62,> 202 µM (inactive)
same,GI50,M14,> 202 µM (inactive)
same,GI50,RPMI-8226,> 202 µM (inactive)
same,GI50,OVCAR-8,> 202 µM (inactive)
same,GI50,KM12,> 202 µM (inactive)
same,GI50,SNB-75,78.9 µM (inactive)
same,GI50,ACHN,> 202 µM (inactive)
same,GI50,SR,> 202 µM (inactive)
same,GI50,CCRF-CEM,98.4 µM (inactive)
same,GI50,Malme-3M,> 202 µM (inactive)
same,GI50,SF-539,> 202 µM (inactive)
same,GI50,SNB-78,> 202 µM (inactive)
same,GI50,DMS-114,> 202 µM (inactive)
same,GI50,CAKI-1,> 202 µM (inactive)
same,GI50,MOLT-4,99.5 µM (inactive)
same,GI50,SN12C,> 202 µM (inactive)
same,GI50,UACC-62,> 202 µM (inactive)
same,GI50,NCI-H460,> 202 µM (inactive)
COc1ccc2c3c([nH]c2c1CC=C(C)C)C(=O)C=C(C)C3=O,GI50,NCI-H23,> 25 µM (inactive)
same,GI50,RXF 393,> 25 µM (inactive)
same,GI50,KM-20L2,> 25 µM (inactive)
same,GI50,SK-MEL-28,> 25 µM (inactive)
same,GI50,SW-620,> 25 µM (inactive)
same,GI50,HOP-18,12.1 µM (inactive)
same,GI50,OVCAR-3,> 25 µM (inactive)
same,GI50,SNB-19,> 25 µM (inactive)
same,GI50,COLO 205,> 25 µM (inactive)
same,GI50,IGROV-1,> 25 µM (inactive)
same,GI50,HOP-92,> 25 µM (inactive)
same,GI50,DMS-273,> 25 µM (inactive)
same,GI50,NCI-H226,> 25 µM (inactive)
same,GI50,HT-29,> 25 µM (inactive)
same,GI50,UACC-257,> 25 µM (inactive)
same,GI50,SF-268,12.3 µM (inactive)
same,GI50,HCT-15,> 25 µM
same,GI50,HL-60,> 25 µM (inactive)
same,GI50,XF498,> 25 µM (inactive)
same,GI50,TK-10,> 25 µM (inactive)
same,GI50,K562,> 25 µM (inactive)
same,GI50,SK-OV-3,> 25 µM (inactive)
same,GI50,SK-MEL-2,> 25 µM (inactive)
same,GI50,U-251,> 25 µM (inactive)
same,GI50,DLD-1,> 25 µM (inactive)
same,GI50,786-0,> 25 µM (inactive)
same,GI50,OVCAR-4,20.4 µM (inactive)
same,GI50,SF-295,> 25 µM (inactive)
same,GI50,SK-MEL-5,> 25 µM (inactive)
same,GI50,NCI-H522,11.8 µM (inactive)
same,GI50,UO-31,> 25 µM (inactive)
same,GI50,HCT-116,16.2 µM (inactive)
same,GI50,LXFL 529,15.8 µM (inactive)
same,GI50,M19-MEL,11.6 µM (inactive)
same,GI50,A549,> 25 µM (inactive)
same,GI50,OVCAR-5,> 25 µM (inactive)
same,GI50,HOP-62,> 25 µM (inactive)
same,GI50,M14,> 25 µM (inactive)
same,GI50,RPMI-8226,> 25 µM (inactive)
same,GI50,OVCAR-8,> 25 µM (inactive)
same,GI50,KM12,> 25 µM (inactive)
same,GI50,HCC 2998,> 25 µM (inactive)
same,GI50,SNB-75,14.4 µM (inactive)
same,GI50,EKVX,> 25 µM (inactive)
same,GI50,ACHN,> 25 µM (inactive)
same,GI50,SR,24.5 µM (inactive)
same,GI50,CCRF-CEM,8.36 µM (inactive)
same,GI50,Malme-3M,16.1 µM (inactive)
same,GI50,SF-539,> 25 µM (inactive)
same,GI50,DMS-114,18.3 µM (inactive)
same,GI50,CAKI-1,> 25 µM (inactive)
same,GI50,MOLT-4,18.5 µM (inactive)
same,GI50,SN12C,> 25 µM (inactive)
same,GI50,UACC-62,> 25 µM (inactive)
same,GI50,NCI-H460,> 25 µM (inactive)
